Key:
[1] = xn = mol fraction of the nth substance listed; conditions: 100 kPa, Liquid; for viscosity: Capillary tube (Ostwald / Ubbelohde) method; for mass density: Vibrating tube method
[2] = refractive index (Na D-line) (dimensionless); xn = mol fraction of the nth substance listed; conditions: 100 kPa, Liquid, Standard Abbe refractometry

C1CC[C@H]2CCCC[C@H]2C1 [cis-decahydronaphthalene] + CCCCCCCCCC
Conditions	mass density, [1] [kg/m3]	refractive index, [2]	viscosity, [1] [mPa·s]
293.15 K, x1 = 0.1006	744.89	–	1.006
293.15 K, x1 = 0.2055	759.79	–	1.09
293.15 K, x1 = 0.3009	773.95	–	1.197
293.15 K, x1 = 0.3965	788.64	–	1.366
293.15 K, x1 = 0.508	806.55	–	1.481
293.15 K, x1 = 0.6026	822.35	–	1.669
293.15 K, x1 = 0.7012	839.6	–	1.954
293.15 K, x1 = 0.7763	853.24	–	2.163
293.15 K, x1 = 0.8985	876.48	–	2.647
293.15 K, x1 = 1	896.85	–	3.355
298.15 K, x1 = 0.1006	741.18	1.415	0.933
298.15 K, x1 = 0.2055	756.08	1.421	1.015
298.15 K, x1 = 0.3009	770.21	1.427	1.107
298.15 K, x1 = 0.3965	784.9	1.4326	1.26
298.15 K, x1 = 0.508	802.83	1.4403	1.361
298.15 K, x1 = 0.6026	818.62	1.4464	1.53
298.15 K, x1 = 0.7012	835.86	1.4539	1.781
298.15 K, x1 = 0.7763	849.49	1.4594	1.964
298.15 K, x1 = 0.8985	872.71	1.4688	2.39
298.15 K, x1 = 1	893.06	1.4776	3.011
303.15 K, x1 = 0.1006	737.4	–	0.868
303.15 K, x1 = 0.2055	752.31	–	0.939
303.15 K, x1 = 0.3009	766.45	–	1.022
303.15 K, x1 = 0.3965	781.15	–	1.162
303.15 K, x1 = 0.508	799.07	–	1.255
303.15 K, x1 = 0.6026	814.86	–	1.406
303.15 K, x1 = 0.7012	832.1	–	1.633
303.15 K, x1 = 0.7763	845.72	–	1.792
303.15 K, x1 = 0.8985	868.93	–	2.168
303.15 K, x1 = 1	889.26	–	2.718
308.15 K, x1 = 0.1006	733.61	1.4109	0.812
308.15 K, x1 = 0.2055	748.53	1.4167	0.876
308.15 K, x1 = 0.3009	762.68	1.4227	0.95
308.15 K, x1 = 0.3965	777.38	1.4284	1.076
308.15 K, x1 = 0.508	795.31	1.4358	1.162
308.15 K, x1 = 0.6026	811.1	1.4422	1.298
308.15 K, x1 = 0.7012	828.33	1.4496	1.503
308.15 K, x1 = 0.7763	841.96	1.455	1.644
308.15 K, x1 = 0.8985	865.15	1.4647	1.979
308.15 K, x1 = 1	885.46	1.4736	2.47
313.15 K, x1 = 0.1006	729.8	–	0.76
313.15 K, x1 = 0.2055	744.74	–	0.82
313.15 K, x1 = 0.3009	758.9	–	0.887
313.15 K, x1 = 0.3965	773.6	–	0.996
313.15 K, x1 = 0.508	791.54	–	1.079
313.15 K, x1 = 0.6026	807.33	–	1.204
313.15 K, x1 = 0.7012	824.56	–	1.389
313.15 K, x1 = 0.7763	838.18	–	1.517
313.15 K, x1 = 0.8985	861.37	–	1.811
313.15 K, x1 = 1	881.65	–	2.252
318.15 K, x1 = 0.1006	725.99	1.4065	0.715
318.15 K, x1 = 0.2055	740.94	1.4127	0.771
318.15 K, x1 = 0.3009	755.1	1.4188	0.832
318.15 K, x1 = 0.3965	769.81	1.4251	0.924
318.15 K, x1 = 0.508	787.76	1.4319	1.007
318.15 K, x1 = 0.6026	803.55	1.4384	1.12
318.15 K, x1 = 0.7012	820.78	1.4456	1.286
318.15 K, x1 = 0.7763	834.4	1.4515	1.401
318.15 K, x1 = 0.8985	857.58	1.4611	1.666
318.15 K, x1 = 1	877.85	1.4696	2.063
323.15 K, x1 = 0.1006	722.16	–	0.674
323.15 K, x1 = 0.2055	737.12	–	0.725
323.15 K, x1 = 0.3009	751.29	–	0.781
323.15 K, x1 = 0.3965	766.01	–	0.859
323.15 K, x1 = 0.508	783.96	–	0.941
323.15 K, x1 = 0.6026	799.76	–	1.045
323.15 K, x1 = 0.7012	816.99	–	1.193
323.15 K, x1 = 0.7763	830.61	–	1.299
323.15 K, x1 = 0.8985	853.78	–	1.539
323.15 K, x1 = 1	874.05	–	1.898

Reference: the NIST ThermoML archive (doi:10.1021/je400250u)
